Assay results from article PMC8286599 (Gut Pathogens, 2021).
Converted amounts (≈) assume the structure as drawn. Where two headings read alike, the source gives them in different places.

How the values were obtained:
[1] = tested on: Salmonella Typhimurium strains; type: cell-based; further: key: S- Sensitive; I- Intermediate; R- Resistant
[2] = tested on: Salmonella Enteritidis strains; type: cell-based; further: key: S- Sensitive; I- Intermediate; R- Resistant
EAEC strains [3] = assay: Antibiotic susceptibility testing; type: cell-based, enteroaggregative Escherichia coli; further: key: S- Sensitive; I- Intermediate; R- Resistant
Text: Supplement 13099_2021_443_MOESM1_ESM.docx, table 1: Supplementary Table 1. Antibiotic susceptibility pattern of EAEC and NTS strains under study | column: Antibiotic Susceptibility testing

EAEC strains [4] = assay: MIC values of antibiotics; type: cell-based, enteroaggregative Escherichia coli

Molecule: CC1(C)S[C@@H]2[C@H](NC(=O)[C@H](N)c3ccccc3)C(=O)N2[C@H]1C(=O)O [AMP]
- Antibiotic Susceptibility testing ([1]; strain ST1): R
- Antibiotic Susceptibility testing ([1]; strain ST2): R
- Antibiotic Susceptibility testing ([1]; strain ST3): R
- Antibiotic Susceptibility testing ([2]; strain S1): R
- Antibiotic Susceptibility testing ([2]; strain S2): R
- Antibiotic Susceptibility testing ([2]; strain S3): R
- Antibiotic Susceptibility testing (EAEC strains [3]; strain E1): R
- Antibiotic Susceptibility testing (EAEC strains [3]; strain E2): R
- Antibiotic Susceptibility testing (EAEC strains [3]; strain E3): R
- MIC (EAEC strains [4]; strain E1): >240 µM
- MIC (EAEC strains [4]; strain E2): >240 µM
- MIC (EAEC strains [4]; strain E3): >240 µM

Molecule: C[C@H]1[C@H](NC(=O)/C(=N\OC(C)(C)C(=O)O)c2csc(N)n2)C(=O)N1S(=O)(=O)O [AT, Aztreonam]
- Antibiotic Susceptibility testing ([2]; strain S1): S
- Antibiotic Susceptibility testing ([2]; strain S2): S
- Antibiotic Susceptibility testing ([2]; strain S3): S

Molecule: CC[C@H]1OC(=O)[C@H](C)[C@@H](O[C@H]2C[C@@](C)(OC)[C@@H](O)[C@H](C)O2)[C@H](C)[C@@H](O[C@@H]2O[C@H](C)C[C@H](N(C)C)[C@H]2O)[C@](C)(O)C[C@@H](C)CN(C)[C@H](C)[C@@H](O)[C@]1(C)O [AZM, Azithromycin]
- Antibiotic Susceptibility testing [2]: S

Molecule: O=C(N[C@H](CO)[C@H](O)c1ccc([N+](=O)[O-])cc1)C(Cl)Cl [C, Chloramphenicol]
- Antibiotic Susceptibility testing ([1]; strain ST1): R
- Antibiotic Susceptibility testing ([1]; strain ST2): R
- Antibiotic Susceptibility testing ([1]; strain ST3): R
- Antibiotic Susceptibility testing ([2]; strain S1): R
- Antibiotic Susceptibility testing ([2]; strain S2): S
- Antibiotic Susceptibility testing ([2]; strain S3): S
- Antibiotic Susceptibility testing (EAEC strains [3]; strain E1): S
- Antibiotic Susceptibility testing (EAEC strains [3]; strain E2): S
- Antibiotic Susceptibility testing (EAEC strains [3]; strain E3): S
- MIC Values, class symbol printed instead of a number (EAEC strains [4]; strain E1): S
- MIC Values, class symbol printed instead of a number (EAEC strains [4]; strain E2): S
- MIC Values, class symbol printed instead of a number (EAEC strains [4]; strain E3): S

Molecule: CC(C)(O/N=C(\C(=O)N[C@@H]1C(=O)N2C(C(=O)[O-])=C(C[n+]3ccccc3)CS[C@H]12)c1csc(N)n1)C(=O)O [CAZ]
- Antibiotic Susceptibility testing ([1]; strain ST1): S
- Antibiotic Susceptibility testing ([1]; strain ST2): R
- Antibiotic Susceptibility testing ([1]; strain ST3): I

Molecule: O=C(O)c1cn(C2CC2)c2cc(N3CCNCC3)c(F)cc2c1=O [CIP]
- Antibiotic Susceptibility testing ([1]; strain ST1): R
- Antibiotic Susceptibility testing ([1]; strain ST2): R
- Antibiotic Susceptibility testing ([1]; strain ST3): R
- Antibiotic Susceptibility testing (EAEC strains [3]; strain E1): S
- Antibiotic Susceptibility testing (EAEC strains [3]; strain E2): R
- Antibiotic Susceptibility testing (EAEC strains [3]; strain E3): R
- MIC (EAEC strains [4]; strain E2): 120 µM (≈ 39.8 µg/mL)
- MIC (EAEC strains [4]; strain E3): 60 µM (≈ 19.9 µg/mL)

Molecule: COCC1=C(C(=O)O)N2C(=O)[C@@H](NC(=O)/C(=N\OC)c3csc(N)n3)[C@H]2SC1 [CPD, Cefpodoxime]
- Antibiotic Susceptibility testing ([2]; strain S1): R
- Antibiotic Susceptibility testing ([2]; strain S2): R
- Antibiotic Susceptibility testing ([2]; strain S3): R

Molecule: CO/N=C(\C(=O)N[C@@H]1C(=O)N2C(C(=O)[O-])=C(C[N+]3(C)CCCC3)CS[C@H]12)c1csc(N)n1 [CPM]
- Antibiotic Susceptibility testing ([1]; strain ST1): S
- Antibiotic Susceptibility testing ([1]; strain ST2): S
- Antibiotic Susceptibility testing ([1]; strain ST3): S
- Antibiotic Susceptibility testing ([2]; strain S1): S
- Antibiotic Susceptibility testing ([2]; strain S2): S
- Antibiotic Susceptibility testing ([2]; strain S3): S

Molecule: CCN1CCN(C(=O)N[C@@H](C(=O)N[C@@H]2C(=O)N3C(C(=O)O)=C(CSc4nnnn4C)CS[C@H]23)c2ccc(O)cc2)C(=O)C1=O [CPZ, Cefoperozone]
- Antibiotic Susceptibility testing ([2]; strain S1): S
- Antibiotic Susceptibility testing ([2]; strain S2): S
- Antibiotic Susceptibility testing ([2]; strain S3): S

Molecule: CO/N=C(\C(=O)N[C@@H]1C(=O)N2C(C(=O)O)=C(COC(C)=O)CS[C@H]12)c1csc(N)n1 [CTR, Cefotaxime]
- Antibiotic Susceptibility testing ([1]; strain ST1): S
- Antibiotic Susceptibility testing ([1]; strain ST2): R
- Antibiotic Susceptibility testing ([1]; strain ST3): S
- Antibiotic Susceptibility testing (EAEC strains [3]; strain E1): S
- Antibiotic Susceptibility testing (EAEC strains [3]; strain E2): R
- Antibiotic Susceptibility testing (EAEC strains [3]; strain E3): R
- MIC (EAEC strains [4]; Escherichia coli, strain E2): > 240 µM
- MIC Values, class symbol printed instead of a number (EAEC strains [4]; strain E1): S
- MIC (EAEC strains [4]; strain E3): >240 µM

Molecule: CO/N=C(\C(=O)N[C@@H]1C(=O)N2C(C(=O)O)=C(COC(C)=O)CS[C@H]12)c1csc(N)n1 [CTX]
- Antibiotic Susceptibility testing ([2]; strain S1): S
- Antibiotic Susceptibility testing ([2]; strain S2): S
- Antibiotic Susceptibility testing ([2]; strain S3): S

Molecule: CO[C@@]1(NC(=O)Cc2cccs2)C(=O)N2C(C(=O)O)=C(COC(N)=O)CS[C@@H]21 [CX]
- Antibiotic Susceptibility testing [1]: S and R and I
- Antibiotic Susceptibility testing [2]: S

Molecule: Cc1nnc(SCC2=C(C(=O)O)N3C(=O)[C@@H](NC(=O)Cn4cnnn4)[C@H]3SC2)s1 [CZ]
- Antibiotic Susceptibility testing ([1]; strain ST1): S
- Antibiotic Susceptibility testing ([1]; strain ST2): S
- Antibiotic Susceptibility testing ([1]; strain ST3): S

Molecule: C[C@@H](O)[C@H]1C(=O)N2C(C(=O)O)=C(SCCN=CN)C[C@H]12 [IMI, Imipenem]
- Antibiotic Susceptibility testing (EAEC strains [3]; strain E1): S
- Antibiotic Susceptibility testing (EAEC strains [3]; strain E2): S
- Antibiotic Susceptibility testing (EAEC strains [3]; strain E3): S
- MIC Values, class symbol printed instead of a number (EAEC strains [4]; strain E1): S
- MIC Values, class symbol printed instead of a number (EAEC strains [4]; strain E2): S
- MIC Values, class symbol printed instead of a number (EAEC strains [4]; strain E3): S

Molecule: C[C@@H](O)[C@H]1C(=O)N2C(C(=O)O)=C(SCCN=CN)C[C@H]12 [IPM]
- Antibiotic Susceptibility testing ([1]; strain ST1): S
- Antibiotic Susceptibility testing ([1]; strain ST2): S
- Antibiotic Susceptibility testing ([1]; strain ST3): S

Molecule: NC[C@H]1O[C@H](O[C@H]2[C@H](O)[C@@H](O[C@H]3O[C@H](CO)[C@@H](O)[C@H](N)[C@H]3O)[C@H](N)C[C@@H]2N)[C@H](O)[C@@H](O)[C@@H]1O [K, Kanamycin]
- Antibiotic Susceptibility testing ([2]; strain S1): R
- Antibiotic Susceptibility testing ([2]; strain S2): S
- Antibiotic Susceptibility testing ([2]; strain S3): S

Molecule: C[C@H]1COc2c(N3CCN(C)CC3)c(F)cc3c(=O)c(C(=O)O)cn1c23 [LE, Levofloxacin]
- Antibiotic Susceptibility testing ([1]; strain ST1): R
- Antibiotic Susceptibility testing ([1]; strain ST2): R
- Antibiotic Susceptibility testing ([1]; strain ST3): I

Molecule: C[C@@H](O)[C@H]1C(=O)N2C(C(=O)O)=C(S[C@@H]3CN[C@H](C(=O)N(C)C)C3)[C@H](C)[C@H]12 [MRP, Meropenem]
- Antibiotic Susceptibility testing ([2]; strain S1): S
- Antibiotic Susceptibility testing ([2]; strain S2): S
- Antibiotic Susceptibility testing ([2]; strain S3): S

Molecule: CCn1cc(C(=O)O)c(=O)c2ccc(C)nc21 [NA, Nalidicic Acid]
- Antibiotic Susceptibility testing ([1]; strain ST1): R
- Antibiotic Susceptibility testing ([1]; strain ST2): R
- Antibiotic Susceptibility testing ([1]; strain ST3): I
- Antibiotic Susceptibility testing ([2]; strain S1): R
- Antibiotic Susceptibility testing ([2]; strain S2): R
- Antibiotic Susceptibility testing ([2]; strain S3): R

Molecule: O=C1CN(/N=C/c2ccc([N+](=O)[O-])o2)C(=O)N1 [NIT, Nitrofurantoin]
- Antibiotic Susceptibility testing [2]: S and R

Molecule: Nc1ccc(S(=O)(=O)Nc2ncccn2)cc1 [SD, Sulfadiazine]
- Antibiotic Susceptibility testing [2]: R

Molecule: Cc1noc(NS(=O)(=O)c2ccc(N)cc2)c1C [SF, Sulphafurazole]
- Antibiotic Susceptibility testing ([2]; strain S1): S
- Antibiotic Susceptibility testing ([2]; strain S2): R
- Antibiotic Susceptibility testing ([2]; strain S3): S

Molecule: Cc1cc(NS(=O)(=O)c2ccc(N)cc2)no1 [SXT, Sulfamethoxazole]
- Antibiotic Susceptibility testing (EAEC strains [3]; strain E1): R
- Antibiotic Susceptibility testing (EAEC strains [3]; strain E2): S
- Antibiotic Susceptibility testing (EAEC strains [3]; strain E3): R

Molecule: CN(C)[C@@H]1C(O)=C(C(N)=O)C(=O)[C@@]2(O)C(O)=C3C(=O)c4c(O)cccc4[C@@](C)(O)[C@H]3C[C@@H]12 [TE]
- Antibiotic Susceptibility testing ([1]; strain ST1): R
- Antibiotic Susceptibility testing ([1]; strain ST2): R
- Antibiotic Susceptibility testing ([1]; strain ST3): R
- Antibiotic Susceptibility testing ([2]; strain S1): R
- Antibiotic Susceptibility testing ([2]; strain S2): S
- Antibiotic Susceptibility testing ([2]; strain S3): S
- Antibiotic Susceptibility testing (EAEC strains [3]; strain E1): R
- Antibiotic Susceptibility testing (EAEC strains [3]; strain E2): R
- Antibiotic Susceptibility testing (EAEC strains [3]; strain E3): R
- MIC (EAEC strains [4]; strain E1): 60 µM (≈ 26.7 µg/mL)
- MIC (EAEC strains [4]; strain E2): 2 µM (≈ 0.889 µg/mL)
- MIC (EAEC strains [4]; strain E3): 30 µM (≈ 13.3 µg/mL)

Molecule: Colistin sulphate
- Antibiotic Susceptibility testing (EAEC strains [3]; strain E1): S
- Antibiotic Susceptibility testing (EAEC strains [3]; strain E2): S
- Antibiotic Susceptibility testing (EAEC strains [3]; strain E3): S
- MIC Values, class symbol printed instead of a number (EAEC strains [4]; strain E1): S
- MIC Values, class symbol printed instead of a number (EAEC strains [4]; strain E2): S
- MIC Values, class symbol printed instead of a number (EAEC strains [4]; strain E3): S
